Here are results for 11 compounds from ChEMBL document CHEMBL1201862, “PubChem BioAssay data set” (2004).

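Exposure lasted 48 hours, with cells grown in 96-well plates and compounds tested at five concentrations. GI50: concentration for 50% inhibition of growth.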 Activity calls are given as the source filed them. No stated cut-off is given here; in the data, active = GI50 up to about 1.1 µM and inactive = higher. Some results are limits rather than exact numbers.

Common to all, as to assay: NCI tumour cell line growth inhibition, 48 h
The test system of assay [1] is ACHN.
Assay [2] concerns DU-145.
Assay [3] relates to IGROV-1.
The test system of assay [4] is K562.
Assay [5] deals with M19-MEL.
The test system of assay [6] is MCF7.
Assay [7] relates to MDA-MB-231.
For assay [8], the system named is Malme-3M.
Assay [9] deals with NCI-H226.
Assay [10] has as its system SF-539.
Assay [11] concerns SK-MEL-28.
Assay [12] deals with SK-MEL-5.
Assay [13] deals with SN12C.
The subject of assay [14] is SNB-19.
Assay [15] has as its system SNB-75.
The subject of assay [16] is SR.
In assay [17] the test system is U-251.
In assay [18] the test system is UACC-257.
Assay [19] deals with COLO 205.
Assay [20] has as its system RPMI-8226.

With `CN1CCN(c2ccc3[nH]c(-c4ccc5[nH]c(-c6ccc(O)cc6)nc5c4)nc3c2)CC1`, the GI50 in [1] is 281 µM (inactive); in assay [2] it was 329 µM (inactive); in assay [3], 117 µM (inactive); in assay [4] it was 23.3 µM (inactive); in [5], 18.1 µM (inactive); in assay [6] it was 4.98 µM (inactive). In addition, the GI50 in assay [7] was 481 µM (inactive); in assay [8], 2.64 µM (inactive); in assay [9] it was 170 µM (inactive); in assay [10], 54.8 µM (inactive); in [11], 19.8 µM (inactive); in assay [12], 11.8 µM (inactive). Also, the GI50 in [13] is 127 µM (inactive); in assay [14] it was 391 µM (inactive); in assay [15], 353 µM (inactive); in assay [16], 28.1 µM (inactive); in assay [17], 179 µM (inactive); in assay [18], 52.1 µM (inactive).

Regarding `Cc1c(CNc2ccc(Cl)c(C(=O)NC(CC(=O)O)C(=O)O)c2)ccc2nc(N)nc(N)c12` (centres undefined), the GI50 in [1] is 0.0262 µM (active); in assay [19], 4.66 µM (inactive); in assay [2], 0.0588 µM (active); in assay [3], 0.0715 µM (active); in assay [4], < 0.12 µM (active); in [5], 13.7 µM (inactive). The GI50 in assay [6] was 0.499 µM (active); in assay [7] it was > 100 µM (inactive); in [8] it was 121 µM (inactive); in [9] it was > 100 µM (inactive); in assay [20], > 100 µM (inactive); in assay [10] it was 2.62 µM (inactive). Besides, the GI50 is 10.1 µM (inactive) in assay [11]; 0.148 µM (active) in [12]; 0.57 µM (active) in assay [13]; 0.322 µM (active) in assay [14]; > 32.3 µM (inactive) in assay [15]; 0.134 µM (active) in assay [17]. In addition, in assay [18], the GI50 was 5.55 µM (inactive).

With `C=C1C(=O)OC2C1CCC(C)C1C=CC(=O)C12C` (centres undefined), the GI50 was 1.73 µM (inactive) in assay [1]; 2.17 µM (inactive) in assay [19]; 2.53 µM (inactive) in assay [2]; 6.14 µM (inactive) in [3]; 2.48 µM (inactive) in assay [4]; 3.36 µM (inactive) in assay [5]. Besides, the GI50 in [6] is 3.92 µM (inactive); in assay [7], 2.19 µM (inactive); in assay [8], 2.5 µM (inactive); in assay [9], 3.75 µM (inactive); in [20], 1.81 µM (inactive); in assay [10] it was 2.74 µM (inactive). In addition, the GI50 is 2.05 µM (inactive) in assay [11]; 3.33 µM (inactive) in [12]; 3.33 µM (inactive) in assay [13]; 14.7 µM (inactive) in [14]; 8.15 µM (inactive) in assay [15]; 1.51 µM (inactive) in [16]. The GI50 in assay [17] is 11.9 µM (inactive); in assay [18], 1.97 µM (inactive).

Turning to `CCOC(=O)C(/C(=N\NC(=O)OC)C(=O)Nc1cc(OC)ccc1OC)c1cnc2ccccc2n1` (centres undefined), the GI50 in [1], in assay [19], in assay [3], in assay [4], in assay [5] and in [8] was > 100 µM (inactive) each time. Further, the GI50 in [9], in assay [20], in assay [10], in [11], in [12] and in [13] was > 100 µM (inactive) in each case. For the same compound, the GI50 in assay [15], in assay [16], in assay [17] and in assay [18] was > 100 µM (inactive) in each case.

Consider `NNC(=O)CCC(=O)Nc1ccc(Cl)cc1Cl`, for which the GI50 was > 100 µM (inactive) in [1]; > 100 µM (inactive) in [19]; > 100 µM (inactive) in [3]; 19.1 µM (inactive) in assay [4]; > 100 µM (inactive) in assay [5]; > 100 µM (inactive) in [8]. Besides, the GI50 in [9] was > 100 µM (inactive); in assay [20], 80.5 µM (inactive); in [10], > 100 µM (inactive); in [11], > 100 µM (inactive); in assay [12], > 100 µM (inactive); in assay [13], > 100 µM (inactive). The GI50 in [14] was > 100 µM (inactive); in [15] it was > 100 µM (inactive); in [16], 6.68 µM (inactive); in assay [17] it was > 100 µM (inactive); in assay [18] it was > 100 µM (inactive).

Regarding `O=C(c1ccccc1)[C@H]1Nc2cnccc2C2c3ccccc3CC21` (some centres undefined), the GI50 in assay [1] was 13.8 µM (inactive); in assay [19] it was 19.8 µM (inactive); in [3], 24 µM (inactive); in assay [4], 3.14 µM (inactive); in [5], 8.3 µM (inactive); in [8], 12.9 µM (inactive). In addition, the GI50 in assay [9] was 4.26 µM (inactive); in assay [20], 7 µM (inactive); in [10] it was 15.7 µM (inactive); in assay [11] it was 14.1 µM (inactive); in assay [12], 3.31 µM (inactive); in assay [13], 8.59 µM (inactive). Besides, the GI50 in [14] is 26.7 µM (inactive); in [15], 16.2 µM (inactive); in [16], 7.43 µM (inactive); in [17], 11.3 µM (inactive); in assay [18] it was 13.2 µM (inactive).

Turning to `CN1C(c2ccccc2)CC(C)(O)CC1c1ccccc1` (centres undefined), the GI50 in assay [1], in [19], in assay [3], in [4], in assay [5] and in assay [8] was > 100 µM (inactive) in each case. Further, the GI50 in assay [9], in assay [20], in assay [10], in [11], in assay [12] and in assay [13] was > 100 µM (inactive) throughout. The GI50 in [14], in assay [15], in assay [16], in assay [17] and in [18] was > 100 µM (inactive) throughout.

`CC(=O)OC(OC(C)=O)c1ncccc1C(=O)OC(C)C`: the GI50 in assay [1] is > 100 µM (inactive); in assay [19] it was 47.4 µM (inactive); in assay [3] it was > 100 µM (inactive); in assay [4], 18.9 µM (inactive); in assay [5], 30.1 µM (inactive); in [8] it was > 100 µM (inactive). The GI50 was > 100 µM (inactive) in assay [9]; 56 µM (inactive) in assay [10]; 1.18 µM (inactive) in [11]; 38.2 µM (inactive) in [12]; > 100 µM (inactive) in assay [13]; > 100 µM (inactive) in [14]. Moreover, the GI50 in [15] is 81.8 µM (inactive); in assay [16], 15.1 µM (inactive); in [17], 18.3 µM (inactive); in [18], > 100 µM (inactive).

Consider `CN(C)C1=NC2=S(SC(Nc3ccccc3)=N2)S1` (centres undefined), for which the GI50 in assay [1] is 11.9 µM (inactive); in [3], 15.7 µM (inactive); in assay [4], 6.62 µM (inactive); in assay [5], 30 µM (inactive); in assay [8], 16.1 µM (inactive); in assay [9], 22.2 µM (inactive). The GI50 is 9.33 µM (inactive) in [20]; 20.2 µM (inactive) in assay [10]; 17.2 µM (inactive) in assay [11]; 5.87 µM (inactive) in [12]; 31.3 µM (inactive) in assay [13]; 26.3 µM (inactive) in assay [14]. The GI50 is 28.7 µM (inactive) in [15], 17.1 µM (inactive) in assay [16], 19.4 µM (inactive) in assay [17] and 7.8 µM (inactive) in assay [18].

As to `CC1CCC2c3c([nH]c4ccccc34)C3C(=O)N(c4ccccc4)C(=O)C3C2C1` (centres undefined), the GI50 in assay [1] is 21.8 µM (inactive); in [19] it was > 100 µM (inactive); in assay [3], 19.7 µM (inactive); in assay [4], 46.8 µM (inactive); in assay [5] it was > 250 µM (inactive); in assay [8], 54.3 µM (inactive). Moreover, the GI50 is 32.1 µM (inactive) in [9]; > 100 µM (inactive) in [20]; 6.64 µM (inactive) in assay [10]; > 250 µM (inactive) in assay [11]; > 100 µM (inactive) in assay [12]; > 250 µM (inactive) in [13]. The GI50 in [14] was 32.6 µM (inactive); in assay [15] it was 2.65 µM (inactive); in assay [16] it was 65 µM (inactive); in [17], 64.9 µM (inactive); in assay [18], > 250 µM (inactive).

For `C/C(=N\N(C)C)c1sc(-n2nc(-c3ccccc3)cc2-c2ccccc2)nc1C`, the GI50 in assay [1], in [19], in [3], in assay [4], in assay [5] and in assay [8] was > 100 µM (inactive) throughout. In addition, the GI50 in assay [9], in [10], in assay [11], in assay [12], in assay [13] and in [14] was > 100 µM (inactive) each time. Further, the GI50 in assay [15] is 15.2 µM (inactive); in assay [16], > 100 µM (inactive); in assay [17], 91.6 µM (inactive); in [18], > 100 µM (inactive).
